Assay results: patent EP0838465A1, “Pyridinium-substituted (lactamylvinyl)cephalosporin derivatives, their preparation and their use as antibiotics” (F. HOFFMANN-LA ROCHE AG, priority 1996, dated 1998)
Converted amounts (≈) assume the structure as drawn.

What was measured:
[1] = tested on: MRSA (n=17); assay: In vitro activity, MIC90 by agar dilution method in Mueller Hinton agar; assay type: cell-based, S. aureus; conditions: Staphylococcus aureus, agar dilution method on Mueller-Hinton agar, inoculum 10^5 CFU/spot
Procedure: (§1) In vitro activity was determined by minimum inhibitory concentration in a microorganism spectum by the agar dilution method in Mueller Hinton agar.
(§2) The antibacterial Spectrum appears below: • MIC : Minimum Inhibiting Concentration Values

[2] = tested on: S.aureus 42080 (MRSA); assay: In vitro activity, minimum inhibitory concentration by agar dilution method in Mueller Hinton agar; assay type: cell-based; conditions: Staphylococcus aureus, agar dilution method on Mueller-Hinton agar, inoculum 10^4 CFU/spot
Procedure: as §1, §2

[3] = tested on: S.aureus 6538 (MSSA); assay: as above; assay type: cell-based; conditions: Staphylococcus aureus, agar dilution method on Mueller-Hinton agar, inoculum 10^4 CFU/spot
Procedure: as §1, §2

MIC90 [1] [µg/mL] | MIC [2] [µg/mL] | MIC [3] [µg/mL] | SMILES
4 (≈ 5.67 µM) | 4 (≈ 5.67 µM) | 0.5 (≈ 0.708 µM) | Nc1nc(/C(=N/O)C(=O)N[C@@H]2C(=O)N3C(C(=O)[O-])=C(/C=C4\CCN(Cc5cc[n+](CC(=O)Nc6ccc(O)cc6)cc5)C4=O)CS[C@H]23)ns1 [B, (6R,7R)-7-[(Z)-2-(5-Amino-[1,2,4]thiadiazol-3-yl)-2-hydroxyimino-acetylamino]-3-[(E)-1-[1-[(4-hydroxy-phenylcarbamoyl)-methyl]-pyridin-1-ium-4-ylmethyl]-2-oxo-pyrrolidin-3-ylidenemethyl]-8-oxo-5-thia-1-aza-bicyclo[4.2.0]-oct-2-ene-2-carboxylate]
8 (≈ 11.1 µM) | 4 (≈ 5.53 µM) | 0.5 (≈ 0.692 µM) | Nc1nc(/C(=N/O)C(=O)N[C@@H]2C(=O)N3C(C(=O)[O-])=C(/C=C4\CCN(Cc5ccc[n+](CC(=O)Nc6ccc(O)c(F)c6)c5)C4=O)CS[C@H]23)cs1 [G, (6R,7R)-7-[(Z)-2-(2-Amino-thiazol-4-yl)-2-hydroxyimino-acetylamino]-3-[(E)-1-[1-[(3-fluoro-4-hydroxy-phenylcarbamoyl)-methyl]-pyridin-1-ium-3-ylmethyl]-2-oxo-pyrrolidin-3-ylidenemethyl]-8-oxo-5-thia-1-aza-bicyclo[4.2.0]oct-2-ene-2-carboxylate]
8 (≈ 10.8 µM) | 4 (≈ 5.41 µM) | 0.5 (≈ 0.676 µM) | Nc1nc(/C(=N/O)C(=O)N[C@@H]2C(=O)N3C(C(=O)[O-])=C(/C=C4\CCN(Cc5cc[n+](CC(=O)Nc6ccc(O)c(Cl)c6)cc5)C4=O)CS[C@H]23)cs1 [E, (6R,7R)-7-[(Z)-2-(2-Amino-thiazol-4-yl)-2-hydroxyimino-acetylamino]-3-[(E)-1-[1-[(3-chloro-4-hydroxy-phenylcarbamoyl)-methyl]-pyridin-1-ium-4-ylmethyl]-2-oxo-pyrrolidin-3-ylidenemethyl]-8-oxo-5-thia-1-aza-bicyclo[4.2.0]oct-2-ene-2-carboxylate]
8 (≈ 10.9 µM) | 8 (≈ 10.9 µM) | 1 (≈ 1.36 µM) | COc1cc(NC(=O)C[n+]2ccc(CN3CC/C(=C\C4=C(C(=O)[O-])N5C(=O)[C@@H](NC(=O)/C(=N\O)c6csc(N)n6)[C@H]5SC4)C3=O)cc2)ccc1O [F, (6R,7R)-7-[(Z)-2-(2-Amino-thiazol-4-yl)-2-hydroxyimino-acetylamino]-3-[(E)-1-[1-[(4-hydroxy-3-methoxy-phenylcarbamoyl)-methyl]-pyridin-1-ium-4-ylmethyl]-2-oxo-pyrrolidin-3-ylidenemethyl]-8-oxo-5-thia-1-aza-bicyclo[4.2.0]oct-2-ene-2-carboxylate]
4 (≈ 5.53 µM) | 4 (≈ 5.53 µM) | 1 (≈ 1.38 µM) | Nc1nc(/C(=N/O)C(=O)N[C@@H]2C(=O)N3C(C(=O)[O-])=C(/C=C4\CCN(Cc5cc[n+](CC(=O)Nc6ccc(O)c(F)c6)cc5)C4=O)CS[C@H]23)ns1 [D, (6R,7R)-7-[(Z)-2-(5-Amino-[1,2,4]thiadiazol-3-yl)-2-hydroxyimino-acetylamino]-3-[(E)-1-[1-[(3-fluoro-4-hydroxy-phenylcarbamoyl)-methyl]-pyridin-1-ium-4-ylmethyl]-2-oxo-pyrrolidin-3-ylidenemethyl]-8-oxo-5-thia-1-aza-bicyclo[4.2.0]oct-2-ene-2-carboxylate]
8 (≈ 11.4 µM) | 4 (≈ 5.68 µM) | 0.5 (≈ 0.709 µM) | Nc1nc(/C(=N/O)C(=O)N[C@@H]2C(=O)N3C(C(=O)[O-])=C(/C=C4\CCN(Cc5cc[n+](CC(=O)Nc6ccc(O)cc6)cc5)C4=O)CS[C@H]23)cs1 [A, (6R,7R)-7-[(Z)-2-(2-Amino-thiazol-4-yl)-2-hydroxyimino-acetylamino]-3-[(E)-1-[1-[(4-hydroxy-phenylcarbamoyl)-methyl]-pyridin-1-ium-4-ylmethyl]-2-oxo-pyrrolidin-3-ylidenemethyl]-8-oxo-5-thia-1-aza-bicyclo[4.2.0]oct-2-ene-2-carboxylate]
4 (≈ 5.53 µM) | 4 (≈ 5.53 µM) | 1 (≈ 1.38 µM) | Nc1nc(/C(=N/O)C(=O)N[C@@H]2C(=O)N3C(C(=O)[O-])=C(/C=C4\CCN(Cc5cc[n+](CC(=O)Nc6ccc(O)c(F)c6)cc5)C4=O)CS[C@H]23)cs1 [C, (6R,7R)-7-[(Z)-2-(2-Amino-thiazol-4-yl)-2-hydroxyimino-acetylamino]-3-[(E)-1-[1-[(3-fluoro-4-hydroxy-phenylcarbamoyl)-methyl]-pyridin-1-ium-4-ylmethyl]-2-oxo-pyrrolidin-3-ylidenemethyl]-8-oxo-5-thia-1-aza-bicyclo[4.2.0]oct-2-ene-2-carboxylate]
